The source of these data is paper PMC4482062 (Nucleic Acids Research, 2015).

Each structure is given as a SMILES string. Several values for one entry are separate records, joined by “and”; a condition that tells them apart may be missing. Equal entries are not always repeated.

Details of data set [1]: method as in PMID 10858319. To be noted: in water; cited from earlier work.
The next data set has as its target T1, CmoB Y200A mutant (Escherichia coli, UniProt P76291, Y200A).
T1 construct: vector LIC-pET30a) (cleaved yes); made in house; host or cells: Escherichia coli BL21 (DE3)
Briefly: Isothermal titration calorimetry, Y200A mutant CmoB. The data set is classed as binding. The method, then:
(§1) CmoB was extensively dialyzed for 24 h against binding buffer (20-mM HEPES, pH 7.5) using a dialysis cassette with 10-kDa MWCO (Pierce). Lyophilized Cx-SAM was dissolved in the binding buffer at a final concentration of 1.3 mM. SAM was purchased from Sigma and dissolved in binding buffer at a final concentration of 10 mM. Prior to use, all titration samples were centrifuged for 20 min at 4°C. Isothermal titration calorimetry (ITC) experiments were performed at 15°C using an auto-ITC200 (MicroCal, LLC, Northhampton, MA, USA) in which the reaction cell (202.8 μl) containing CmoB (50 μM and 370 μM for Cx-SAM and SAM, respectively) was titrated with 40 × 1-μl injections of 1.3-mM Cx-SAM or 6.7-mM SAM with an equilibration time of 180 s. Raw injection traces were integrated over time, normalized per mol of ligand injected and corrected for the heat of dilution obtained from the plateau of a titration curve. Titration data were analyzed using a single-site model in Origin (version X) and Igor Pro 5/6. […] Based on the chemical synthesis, the Cx-SAM utilized in the binding assay is a racemic mixture, of which only the S-isomer is capable of acting as a substrate/ligand for CmoB. Therefore, the stoichiometry was fixed at 1:1 and the activity of the ligand was introduced as a fitting parameter for Cx-SAM.
(Isothermal titration calorimetry measures the heat released or taken up as one component is titrated into another.)

The target in data set [2] is T2, wild-type CmoB (Escherichia coli, UniProt P76291).
T2 construct: vector LIC-pET30a) (cleaved yes); made in house; host or cells: Escherichia coli BL21 (DE3)
Briefly: In vitro LC-MS-based alkyl transfer assay, wild-type CmoB. The class given is biochemical. The method, then: (§2) The assay solution for SAM-dependent mo5U formation contained 10-mM Tris-HCl (pH 8.0), 4-mM MgCl2, 0.2-mM SAM and 20–25 μg (∼20 μM) of total tRNA prepared from cmoB-mutant E. coli cells in 50 μl. Reaction conditions for Cx-SAM-dependent cmo5U formation assay were identical, with the exception that10-μM Cx-SAM was used in place of SAM. Assays were initiated by addition of 0.1–2-μM CmoB to the above mixtures and subsequently incubated at the room temperature. The reaction was terminated by the addition of 0.1-mg/ml P1 nuclease, followed by incubation at 60°C for at least 1 h. […] Hydrolyzed nucleotides were directly applied to HPLC without further processing for LC-MS analysis as described above.

The target of data set [3] is T2, wild-type CmoB. Briefly: Isothermal titration calorimetry, wild-type CmoB. The data set is classed as binding. The method, then: as §1
In data set [4] the target is T3, CmoB K91A mutant (Escherichia coli, UniProt P76291, K91A).
T3 construct: vector LIC-pET30a) (cleaved yes); made in house; host or cells: Escherichia coli BL21 (DE3)
Put plainly: In vitro LC-MS-based alkyl transfer assay, K91A CmoB. The class given is biochemical. To be noted: Cx-SAM as alkyl donor, after 24 h. The method, then:
as §2

The target in another data set is T4, CmoB R315A mutant (Escherichia coli, UniProt P76291, R315A).
T4 construct: vector LIC-pET30a) (cleaved yes); made in house; host or cells: Escherichia coli BL21 (DE3)
Put plainly: Isothermal titration calorimetry, R315A mutant CmoB. The class given is binding. Here is the method:
as §1

Data set [5] has as its target T3, CmoB K91A mutant. Put plainly: Isothermal titration calorimetry, K91A mutant CmoB. The data set is classed as binding. Here is the method: as §1
The titration curve was analyzed using macroscopic binding constants and enthalpies describing binding of n-molecules of Cx-SAM to tetrameric mutant CmoB. Initially, the titration curve was analyzed with all possible values of n (=1~4). […] Therefore, the titration curve was analyzed using three sets of binding constants and enthalpies (Supplementary Table 2). The fitted values of the macroscopic binding constants were compared to those expected for a case of non-cooperative binding. For both cooperative and non-cooperative binding, K1 is given by 4Ksite where 4 accounts for the number of ligand binding sites in teterameric CmoB (i.e., statistical factor) and Ksite describes the “intrinsic” affinity of each site. Then, Ksite=3.6x10^4 M^-1. The fitted value of K2 is ~ 8.4-fold higher than that calculated for the case of non-cooperative binding (6Ksite^2=7.7x10^9 M^-2), indicating positive cooperativity involved in binding of the second Cx-SAM. Since the population of K91A with three Cx-SAMs bound is negligible, binding of the third Cx-SAM is deduced to be negatively cooperative.
A possible molecular explanation for such heterogeneous cooperativity involved in the interaction between K91A and Cx-SAM is the presence of (at least) two different types of interface between the subunits in tetrameric K91A which is consistent with the structural model of the CmoB tetramer. In this model (Supplementary Figure 9), the four ligand binding sites are initially equivalent, but binding of the first ligand to any of these four sites differentially affects (increases and decreases) the affinities of the neighboring sites for the second ligand through the different subunit interfaces. This model is a variation of the classical “square” model used in the analysis of the interaction between hemoglobin and oxygen(2) and provides a molecular description of the fitted macroscopic binding constants in terms of the intrinsic affinity (Ksite) and two types of cooperativity (ω+ and ω-): K1=4Ksite; K2=2Ksite^2(1+ω++ω-); K4=Ksite^4(ω+ω-)^2. Then, Ksite=3.6x10^4 M^-1, ω+=23.8, and ω-=0.4. The value of ω is equivalent to a fold-change in the Cx-SAM affinity of a binding site in tetrameric K91A when its neighboring site is already occupied by Cx-SAM.
^aIn this model, the interaction is described by a set of binding events where n-molecules of Cx-SAM bind tetrameric CmoB (K91A) with the corresponding binding constants (Kn) and enthalpies (∆Hn°). Initially, the titration curve was analyzed by this model including all possible values of n (=1~4). […] Therefore, the titration curve was analyzed using three sets of binding constants and enthalpies.

The target of another data set is T5, CmoB (Escherichia coli, UniProt P76291).
T5 construct: vector LIC-pET30a) (cleaved yes); made in house; host or cells: Escherichia coli BL21 (DE3)
Put plainly: Time course of SAM-dependent mo5U modification ([14CH3]-SAM), competition with Cx-SAM. The data set is classed as biochemical. To be noted: 10-μM Cx-SAM, 140 μM [14CH3]-SAM, 90 min. Here is the method:
The assay was initiated by mixing 10-mM Tris (pH 8.0), 4-mM MgCl2, 140-μM [^14CH3]-SAM (Perkin Elmer), 100 μg of total tRNA prepared from cmoB-deficient cells and 2-μM CmoB in 50 μl. In competition assays to measure the effect of Cx-SAM on methylation, 10-μM Cx-SAM was added to the above mixture. […] RNA was washed with 0.2-M ammonium acetate (pH 6.0) using an MWCO 10-kDa filter by centrifugation. This washing step was repeated two more times to remove unreacted ^14C-SAM. RNA was then spotted on a DE81 filter (GE) and air-dried for 20 min. Images of the radioactive tRNA were recorded on a phosphorimaging plate (Molecular Dynamics) for 2 days and analyzed using a Molecular Dynamics Storm 860 PhosphorImager System with ImageQuant software.

T1 sequence (P76291 whole entry Y200A): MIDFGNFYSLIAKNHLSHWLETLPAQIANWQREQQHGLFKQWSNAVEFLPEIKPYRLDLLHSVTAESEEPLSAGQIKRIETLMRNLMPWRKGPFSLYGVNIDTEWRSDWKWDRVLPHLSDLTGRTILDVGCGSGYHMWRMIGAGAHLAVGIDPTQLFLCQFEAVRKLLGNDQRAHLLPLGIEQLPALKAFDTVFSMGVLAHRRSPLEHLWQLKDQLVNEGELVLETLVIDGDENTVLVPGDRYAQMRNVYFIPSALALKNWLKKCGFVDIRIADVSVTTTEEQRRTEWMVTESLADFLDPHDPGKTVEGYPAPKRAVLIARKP
T3 sequence (P76291 whole entry K91A): as the sequence (P76291 whole entry Y200A) above, with K91A, A200Y counted along it
T4 sequence (P76291 whole entry R315A): as the sequence (P76291 whole entry Y200A) above, with A200Y, R315A counted along it
T2 sequence (P76291 whole entry): as the sequence (P76291 whole entry Y200A) above, with A200Y counted along it
T5 sequence (P76291 whole entry): as the sequence (P76291 whole entry Y200A) above, with A200Y counted along it

With `O=c1[nH]c(=O)n([C@H]2C[C@H](O)[C@@H](CO)O2)cc1O` [5-hydroxy-2′-deoxyuridine], in data set [1], the “pKa of the hydroxyl group on the pyrimidine ring” value is 7.68.
The term Kd denotes the free concentration of one partner at which half of the binding sites on the other are occupied at equilibrium, for simple one-to-one binding. As for `Nc1ncnc2c1ncn2[C@@H]1O[C@H](C[S+](CC[C@H](N)C(=O)[O-])CC(=O)O)[C@@H](O)[C@H]1O` (stereo partly drawn) [Cx-SAM, carboxy-S-adenosine-L-methionine], the dissociation constant (Kd) on CmoB Y200A mutant was 1.8 ± 0.3 µM; at wild-type CmoB [3] (ITC, 15°C, read-out: Kd) it was 0.4 ± 0.03 µM; on CmoB R315A mutant, 2.1 ± 0.2 µM; at CmoB K91A mutant [5] (K1 (macroscopic binding constant), tetrameric K91A, 1 ligand bound) it was 7.14 µM; on CmoB K91A mutant [5] (Kd, ITC, 15°C, K91A) it was 111 µM and 110 µM. For the same molecule, the “K (binding constant)” value at CmoB Y200A mutant (ITC, 15°C, single-site model, Y200A) was 5.5 ± 0.8 × 10^5 M^−1 and 5.5 ± 0.8 x 10^5 M^−1; at wild-type CmoB [3] (ITC, 15°C, single-site model), 2.5 ± 0.2 × 10^6 M^−1 and 2.5 ± 0.2 x 10^6 M^−1; at CmoB R315A mutant (ITC, 15°C, single-site model, R315A) it was 4.7 ± 0.3 × 10^5 M^−1 and 4.7 ± 0.3 x 10^5 M^−1; on CmoB K91A mutant [5] (ITC, 15°C, single-site model, K91A), 9.0 ± 1.8 × 10^3 M^−1 and 9.0 ± 1.8 x 10^3 M^−1. For the same molecule, the “ΔH°” value at CmoB Y200A mutant (ITC, Y200A) was -7.3 ± 0.1 kcal/mol; at wild-type CmoB [3] (ITC) it was -7.9 ± 0.1 kcal/mol; on wild-type CmoB [3] (ITC, text), -7.88 ± 0.05 kcal/mol; on CmoB R315A mutant (ITC, R315A) it was -8.5 ± 0.1 kcal/mol; on CmoB K91A mutant [5] (ITC, K91A) it was -16.5 ± 1.6 kcal/mol. Moreover, the “Specificity ratio K(Cx-SAM)/K(SAM)” value on CmoB Y200A mutant (Y200A) is reported as greater than 65. The “Reduction of Cx-SAM binding affinity compared to the wild type” value at CmoB Y200A mutant (Y200A vs wild type) and on CmoB R315A mutant (R315A vs wild type) was 4–5 fold throughout. In addition, the “ΔG°” value at CmoB Y200A mutant (ΔG° = −RT lnK, Y200A) is -7.6 ± 0.1 kcal/mol; on wild-type CmoB [3] (ITC, text), -8.44 ± 0.03 kcal/mol; at wild-type CmoB [3] (ΔG° = −RT lnK) it was -8.4 ± 0.1 kcal/mol; at CmoB R315A mutant (ΔG° = −RT lnK, R315A), -7.5 ± 0.1 kcal/mol; on CmoB K91A mutant [5] (ΔG° = −RT lnK, K91A), -5.2 ± 0.1 kcal/mol. The “ΔS°” value at CmoB Y200A mutant (ΔS° = (ΔH°−ΔG°)/T, Y200A) is on record as 0.8 ± 0.5 cal/mol/deg; on wild-type CmoB [3] (ITC, text), 1.92 ± 0.21 cal·mol^−1·deg^−1; at wild-type CmoB [3] (ΔS° = (ΔH°−ΔG°)/T), 1.9 ± 0.2 cal/mol/deg; at CmoB R315A mutant (ΔS° = (ΔH°−ΔG°)/T, R315A), −3.5 ± 0.3 cal/mol/deg; on CmoB K91A mutant [5] (ΔS° = (ΔH°−ΔG°)/T, K91A), −39.3 ± 5.4 cal/mol/deg. Further, the “Time to detectable cmo5U formation” value on wild-type CmoB [2] (0.1-μM wild-type CmoB, 10-μM Cx-SAM, tRNA from cmoB-defective cells) was 9 min. Besides, the “Time to detected cmo5U with both donors present” value at wild-type CmoB [2] (10-μM Cx-SAM and 2-mM SAM) came out at 20 min. Moreover, the “TΔS°” value at wild-type CmoB [3] (ITC, text) is 0.55 ± 0.06 kcal/mol. Besides, the cmo5U formation result on CmoB K91A mutant [4] is listed as “No significant cmo5U signal was detected”. The “Ksite (intrinsic affinity of each site)” value at CmoB K91A mutant [5] (K1=4Ksite, tetrameric K91A) is 36000 M⁻¹. The “ω+ (positive cooperativity factor)” value at CmoB K91A mutant [5] (square model, tetrameric K91A) was 23.8. The “ω- (negative cooperativity factor)” value on CmoB K91A mutant [5] (square model, tetrameric K91A) turned out to be 0.4. Besides, the “K2 (macroscopic binding constant)” value at CmoB K91A mutant [5] (tetrameric K91A, 2 ligands bound) is 6.5 (± 1.4) x 10^10 M^-2. The “K4 (macroscopic binding constant)” value at CmoB K91A mutant [5] (tetrameric K91A, 4 ligands bound) is reported as 1.6 (± 0.5) x 10^20 M^-4. On CmoB K91A mutant [5] (vs 6Ksite^2), the “Fitted K2 relative to non-cooperative binding” value is on record as ~ 8.4 fold. The “Fitted K4 relative to non-cooperative binding” value on CmoB K91A mutant [5] (vs Ksite^4) is given as ~ 98.5 fold. In addition, on CmoB, the “Effect on [14CH3]-SAM methylation of tRNA (radioactive signal)” value is listed as “no detectable radioactive signal”.
